Two compounds from paper PMC11249626, “Fluorophore-Labeled Pyrrolones Targeting the Intracellular Allosteric Binding Site of the Chemokine Receptor CCR1” (ACS Pharmacology & Translational Science, 2024) can be followed below.

This assay deals with T1, CCR1 (Homo sapiens, UniProt P32246).
T1 sequence (P32246 1-355): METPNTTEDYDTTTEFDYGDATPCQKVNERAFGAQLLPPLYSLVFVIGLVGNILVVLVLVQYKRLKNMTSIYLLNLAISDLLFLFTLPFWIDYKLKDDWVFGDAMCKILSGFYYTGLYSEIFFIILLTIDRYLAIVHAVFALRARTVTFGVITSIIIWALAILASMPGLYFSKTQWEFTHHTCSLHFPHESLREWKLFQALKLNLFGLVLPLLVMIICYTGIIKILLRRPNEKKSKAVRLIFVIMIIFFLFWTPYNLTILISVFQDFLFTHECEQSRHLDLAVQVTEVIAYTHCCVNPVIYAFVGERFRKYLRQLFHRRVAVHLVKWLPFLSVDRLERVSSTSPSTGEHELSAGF
In words: Membrane-based NanoBRET saturation binding assay, CCR1_Nluc membranes from HEK293T cells. To be noted: saturation binding of fluorescent ligand, read-out: KD (equilibrium, KD(eq.)). More on the design: Promega pNLF1-C (Nluc) #CCR010TN00; host or cells: HEK293T, transient (PEI). The source says:
To evaluate the CCR1 affinity of previously reported (8–9) and new fluorescently labeled pyrrolones (11–12), we developed a NanoBRET-based binding assay (Figures 4A–H and S2A–J). To this end, we used a previously reported CCR1 construct (hereafter referred to as CCR1_Nluc) with a small and bright luciferase variant (nanoluciferase,[52] Nluc), fused to the intracellular C-terminus of CCR1 (Figures 4A and S2A).[47] […] This was expected, given the very low CCR2/CCR1 selectivity of the parental ligands 4 and 5 (Figure 1).[33] For further studies, we selected 12 due to its highest CCR1 affinity.
Cell culture: HEK293T cells were cultured as previously described.8 In brief, HEK293T cells (gift from Chair of Physiology, Prof. Dr. Alzheimer, FAU Erlangen-Nürnberg) were grown on 10 cm culture dishes at 37 °C and 5% CO2. As growth medium, Dulbecco's Modified Eagle Medium (DMEM)/F12 (Invitrogen) supplemented with 10% fetal bovine serum (FBS, Gibco™ Fetal Bovine Serum, qualified, Brazil), L-glutamine (final concentration: 2 mM; from Gibco™ L-glutamine 200 mM, 100X), penicillin (final concentration: 100 units/mL), and streptomycin (final concentration: 100 µg/mL; from Gibco™ Penicillin-Streptomycin 10,000 U/mL) was used. Cells were split every three to four days and regularly confirmed to be free of mycoplasma contamination using the luminescence-based MycoAlert Plus Kit (Lonza).
Transient transfection using polyethylenimine: For transfection, we used a previously published procedure.8 In brief, HEK293T cells were plated onto culture dishes (Ø 10 cm or Ø 15 cm) and grown to a confluence of approximately 50% at 37 °C and 5% CO2. The growth medium was renewed one-hour before transfection. The transfection mix was prepared, as described in the following. Solution A (0.4-2.2% total DNA (1-5.5 µg) in Gibco™ phosphate buffered saline, pH 7.4) and solution B (3% PEI (linear, 25 kDa, from Polysciences) solution prepared from a PEI stock solution (0.4 µg/µL) in PBS without MgCl2 and CaCl2) were mixed one to one, the resulting mixture was vortexed for 5 s and incubated for 30 min at room temperature. The pre-incubated transfection mix was added dropwise to the cells and cell cultivation was continued […]
Membrane preparation: Membranes were prepared as previously reported.8 In brief, membranes from HEK293T cells transiently expressing the respective GPCR were prepared as follows. The medium of the transfected cells was refreshed after 24 h before cells were harvested 48 h post-transfection. […]
Finally, the protein concentration was determined using the Lowry method.9 cDNA constructs: The CCR1-Nluc fusion construct (CCR1_Nluc) in pcDNA3.1 was generated as previously reported1 using the Gibson Assembly10 (New England Biolabs) method. […]
(In general: Bioluminescence resonance energy transfer reports proximity on the nanometre scale.)

As usually defined, the Kd is the constant that tells how readily two partners part at equilibrium.

Take `CN(C)c1ccc2c(-c3cc(C(=O)NCCOCCOCc4cn(CCCC(=O)C5=C(O)C(=O)N(c6ccc(Cl)cc6F)C5C5CCCCC5)nn4)ccc3C(=O)[O-])c3ccc(=[N+](C)C)cc-3oc2c1` (centres unmarked) [compound 11]: the Kd came out at 3170 ± 370 nM.
Under `CN(C)c1ccc2c(-c3cc(C(=O)NCCOCCOCc4cn(CCCC(=O)C5=C(O)C(=O)N(c6ccc(Br)cc6F)C5C5CCCCC5)nn4)ccc3C(=O)[O-])c3ccc(=[N+](C)C)cc-3oc2c1` (centres unmarked) [compound 12] stands 1900 ± 180 nM.
